# Assay results as given in patent US8754104B2, “Crystalline salts of quinoline compounds and methods for preparing them” (Active Biotech AB, priority 2004, dated 2014).
# Structures can show the parent of a compound that is named as a salt. Where two headings read alike, the source gives them in different places.
# Tests used:
# [1] = assay type: physicochemical; details: for Degradation (percentage increase of related substances): 6 months
# Method: Upon storage without any special precautions being taken, some 3-quinolinecarboxamide derivatives of formula (I) are degraded at an unacceptable rate. At storage during accelerated conditions, that is 40° C. and a relative humidity of 75%, the degradation of some 3-quinoline-carboxamide derivatives can exceed 2% in a period of 6 months (Table 1).
# This is evident from a comparison of N-ethyl-N-phenyl-5-chloro-1,2-dihydro-4-hydroxy-1-methyl-2-oxo-3-quinolinecarboxamide (hereinafter called compound A) with the sodium salt of N-ethyl-N-phenyl-5-chloro-1,2-dihydro-4-hydroxy-1-methyl-2-oxo-3-quinolinecarboxamide (hereinafter called compound A sodium). While at 40° C. and a relative humidity of 75% less than 0.01% of compound A sodium in solid state is converted to degradation products in a period of 24 months, 0.31% of compound A is degraded during a 6-month period. Another example of a 3-quinolinecarboxamide derivative susceptible to degradation is N-ethyl-N-phenyl-5-ethyl-1,2-dihydro-4-hydroxy-1-methyl-2-oxo-3-quinolinecarboxamide (hereinafter called compound B), see Table 1.
# [2] = Solubility in water at room temperature; assay type: physicochemical; details: for solubility: water
# [3] = Compatibility study, binary mixtures (1:1) of excipient and test substance; assay type: physicochemical
# Description: Generally, any tendency of instability is exacerbated when a compound of formula (II) is formulated with various excipients. It is clear that the salt form is preferred as drug substance in any binary mixtures of said compound.
# [4] = Investigation of the degradation rate (reactivity index) in solution; assay type: physicochemical; details: 1-% 0.01M hydrochloric acid in n-propanol, 45 to 60° C., HPLC; relative to Roquinimex defined to 1.0; index 2.0 = 26% per hour
# Method: The degradation rate, hereinafter called the reactivity index, of compound of formula (I) was determined in solution. Roquinimex (Merck Index 12th Ed., No. 8418; Linomide®, LS2616, N-methyl-N-phenyl-1,2-dihydro-4-hydroxy-1-methyl-2-oxo-3-quinolinecarboxamide) was selected as a reference compound with the reactivity index defined to 1.0. A medium of 1-% 0.01M hydrochloric acid in n-propanol was selected. The reaction temperature was in the range of 45 to 60° C. The 3-quinolinecarboxamide derivative of formula (I) was added to the n-propanol solution. The reaction transfers the compound to an n-propylester. The reaction was stopped after 0, 2 and 4 hours, and analysis was carried out by means of HPLC with UV detection. The disappearance of the 3-quinolinecarboxamide derivative was used for evaluation of the reactivity index, but as an alternative also the formation of the n-propylester may be used. A reactivity index of […] at 60° C., a reactivity index of 2.0 corresponds to a degradation rate of 26% per hour etc.
# [5] = 1:1 mixture with Colloidal silica (Aerosil 200), +40° C./75% RH, 6 months
# [6] = 1:1 mixture with Maize Starch, +40° C./75% RH, 6 months
# [7] = 1:1 mixture with Mannitol (Pearlitol 200SD), +40° C./75% RH, 6 months
# [8] = 1:1 mixture with Microcrystalline Cellulose (Avicel PH-, +40° C./75% RH, 6 months)
structure (smiles),measurement,setting,value
"CCN(C(=O)c1c(O)c2c(Cl)cccc2n(C)c1=O)c1ccccc1.[Na] [Compound A sodium, N-Ethyl-N-phenyl-5-chloro-1,2-dihydro-4-hydroxy-1-methyl-2-oxo-3-quinolinecarboxamide sodium salt]",“Shelf-life” (storage time without degradation exceeding 0.5%),[1],>6 months
same,Degradation (percentage increase of related substances),[1],<0.01%^3
same,Converted to degradation products,[1]; 24 months,less than 0.01%
same,solubility,[2]; room temperature,138000 µg/mL
same,Degradation (percentage increase of related substances),[3]; [5],1.5%
same,Degradation (percentage increase of related substances),[3]; [6],0.05%
same,Degradation (percentage increase of related substances),[3]; [7],0.05%
same,Degradation (percentage increase of related substances),[3]; [8],0.31%
"CCc1cccc2c1c(O)c(C(=O)N(CC)c1ccccc1)c(=O)n2C.[Ca] [Example 6A, Crystalline N-Ethyl-N-phenyl-5-ethyl-1,2-dihydro-4-hydroxy-2-methyl-2-oxo-3-quinolinecarboxainide calcium salt]",Solubility in water,[2]; room temperature,300 µg/mL
"CCN(C(=O)c1c(O)c2c(Cl)cccc2n(C)c1=O)c1ccccc1 [Compound A, N-ethyl-N-phenyl-5-chloro-1,2-dihydro-4-hydroxy-1-methyl-2-oxo-3-quinolinecarboxamide]",“Shelf-life” (storage time without degradation exceeding 0.5%),[1],>6 months
same,Degradation (percentage increase of related substances),[1],0.31%
same,Reactivity index,[4],3.1
same,Degradation (percentage increase of related substances),[3]; [5],20%
same,Degradation (percentage increase of related substances),[3]; [6],0.41%
same,Degradation (percentage increase of related substances),[3]; [7],0.45%
same,Degradation (percentage increase of related substances),[3]; [8],1.1%
"CCN(C(=O)c1c(O)c2c(SC)cccc2n(C)c1=O)c1ccccc1 [Compound F, N-ethyl-N-phenyl-5-methylthio-1,2-dihydro-4-hydroxy-1-methyl-2-oxo-3-quinolinecarboxamide]",Reactivity index,[4],>10
"CN(C(=O)c1c(O)c2c(Cl)cccc2n(C)c1=O)c1ccc(F)cc1F [Compound C, N-methyl-N-(2,4-difluorophenyl)-5-chloro-1,2-dihydro-4-hydroxy-1-methyl-2-oxo-3-quinolinecarboxamide]",Reactivity index,[4],2.6
"CCc1cccc2c1c(O)c(C(=O)N(CC)c1ccccc1)c(=O)n2C [Example 7, N-Ethyl-N-phenyl-5-ethyl-1,2-dihydro-4-hydroxy-1-methyl-2-oxo-3-quinolinecarboxamide zinc salt]",solubility,[2]; room temperature,300 µg/mL
"CCc1cccc2c1c(O)c(C(=O)N(CC)c1ccccc1)c(=O)n2C.[Li] [Example 5, N-Ethyl-N-phenyl-5-ethyl-1,2-dihydro-4-hydroxy-1-methyl-2-oxo-3-quinolinecarboxamide lithium salt]",solubility,[2]; room temperature,18000 µg/mL
"CN(C(=O)c1c(O)c2ccccc2n(C)c1=O)c1ccccc1 [Roquinimex, N-methyl-N-phenyl-1,2-dihydro-4-hydroxy-1-methyl-2-oxo-3-quinolinecarboxamide, reference compound]",Reactivity index,[4],1.0
"CCN(C(=O)c1c(O)c2c(Cl)cccc2n(C)c1=O)c1ccccc1 [Example 3, N-Ethyl-N-phenyl-5-chloro-1,2-dihydro-4-hydroxy-1-methyl-2-oxo-3-quinolinecarboxamide calcium salt]",Solubility in water (in words),[2],sparingly soluble in water
same,solubility,[2]; room temperature,~1000 µg/mL
"Cc1cccc2c1c(O)c(C(=O)N(C)c1ccc(C(F)(F)F)cc1)c(=O)n2C [Compound D, N-methyl-N-(4-trifluorophenyl)-1,2-dihydro-1,5-dimethyl-4-hydroxy-1-methyl-2-oxo-3-quinolinecarboxamide]",Reactivity index,[4],>10
"CCN(C(=O)c1c(O)c2c3c(ccc2n(C)c1=O)OCO3)c1ccccc1 [Compound E, N-ethyl-N-phenyl-5,6-methylenedioxy-1,2-dihydro-4-hydroxy-1-methyl-2-oxo-3-quinolinecarboxamide]",Reactivity index,[4],2.9
"CCc1cccc2c1c(O)c(C(=O)N(CC)c1ccccc1)c(=O)n2C [Compound B, N-ethyl-N-phenyl-5-ethyl-1,2-dihydro-4-hydroxy-1-methyl-2-oxo-3-quinolinecarboxamide]",“Shelf-life” (storage time without degradation exceeding 0.5%),[1],<1 months
same,Degradation (percentage increase of related substances),[1],2.0%
same,Reactivity index,[4],4.6
